The values that follow come from BindingDB's records for doi:10.1016/j.ejmech.2023.115347 (Johann Wolfgang Goethe University, 2023).

The assay addresses Ribosomal protein S6 kinase alpha-1 (Homo sapiens) (UniProt Q15418). In words: Inhibition of full length NanoLuc fused RSK1b (unknown origin) transfected in HEK293T cells using NanoBRET NanoGlo substrate incubated for 2 hrs in presence of tracer by NanoBRET assay.

Sequence of Ribosomal protein S6 kinase alpha-1 (Homo sapiens) (Q15418 whole entry, looked up, the tested form may be a part): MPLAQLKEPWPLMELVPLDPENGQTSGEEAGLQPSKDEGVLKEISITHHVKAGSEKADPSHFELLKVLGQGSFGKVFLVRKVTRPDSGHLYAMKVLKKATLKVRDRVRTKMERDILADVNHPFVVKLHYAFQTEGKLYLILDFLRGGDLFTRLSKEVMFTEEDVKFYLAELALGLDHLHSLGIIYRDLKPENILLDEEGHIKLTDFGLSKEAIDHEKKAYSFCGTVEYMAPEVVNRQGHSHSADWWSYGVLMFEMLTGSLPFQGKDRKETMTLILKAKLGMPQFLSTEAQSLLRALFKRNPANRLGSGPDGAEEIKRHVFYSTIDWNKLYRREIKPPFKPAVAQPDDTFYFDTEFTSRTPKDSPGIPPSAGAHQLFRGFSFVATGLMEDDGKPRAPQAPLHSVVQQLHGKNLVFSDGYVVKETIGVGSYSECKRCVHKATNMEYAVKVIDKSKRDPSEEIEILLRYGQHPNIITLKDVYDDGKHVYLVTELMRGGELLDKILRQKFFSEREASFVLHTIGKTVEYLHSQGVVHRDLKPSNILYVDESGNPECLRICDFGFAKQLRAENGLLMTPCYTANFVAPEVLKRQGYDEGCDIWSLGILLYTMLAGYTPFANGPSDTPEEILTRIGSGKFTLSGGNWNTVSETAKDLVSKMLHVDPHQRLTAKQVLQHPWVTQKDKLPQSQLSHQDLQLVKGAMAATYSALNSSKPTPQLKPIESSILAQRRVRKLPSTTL

`CNc1ncc2cc(-c3cc(F)ccc3F)c(=O)n(CCCCN)c2n1`: the IC50 is more than 45 µM.

A word on the IC50: it is the midpoint of a concentration-inhibition curve.
